Laboratory results: US20200131176A1, “SELECTIVE INHIBITORS OF CLINICALLY IMPORTANT MUTANTS OF THE EGFR TYROSINE KINASE” (CS Pharmatech Limited, priority 2017, published 2020)
Like-named read-outs stand apart in the source and are kept apart here.

Experiments:
A431 cells = experiment: A431 inhibition assay (cell proliferation, CellTiter-Glo, 72 h); type: cell-based, human; conditions: Homo sapiens, A-431, 72 h, cellular proliferation, wild type EGFR, read-out: A431 IC50 (nM) WT
Method: (§1) Then incubate the flasks at 37° C. until the cells detach.
(§2) Test compounds were dissolved in DMSO at 30 mM.
(§3) The final concentration was 1,000 cells/well. Add medium only as low control.
(§4) After 72 hours incubation, remove the plates from incubator and equilibrate at room temperature for 15 minutes. Incubate the CellTiter Glo reagents (Promega, G9243) at 37° C. before the experiment. The buffer was equilibrated to room temperature and used to dissolve the substrate. To determine the cell viability, add 40 μL of CellTiter-Glo reagent into each well to be detected (at 1:1 to culture medium). Then the place the plates at room temperature for 30 min followed by read on EnSpire (PerkinElmer).
(§5) For estimation of IC50, the luminescence readout are transformed to % Inhibition by applying the following equation:

Mouse in vivo PK study [1] = conditions: mouse, plasma, male CD1 mice, 10 mg/kg PO
H1975 cells = experiment: H1975 inhibition assay (cell proliferation, CellTiter-Glo, 72 h); type: cell-based, human; conditions: Homo sapiens, NCI-H1975, 72 h, cellular proliferation, double mutant EGFR, read-out: NCI-H1975 IC50 (nM) DM
Method: H1975 Inhibition Assay (Cell Proliferation).
as §2, §3, §4, §5

[2] = target: T1, L858R/T790M double mutant EGFR in H1975 cells (Homo sapiens, UniProt P00533, L858R/T790M); experiment: L858R/T790M double mutant H1975 autophosphorylation inhibition assay (ELISA); type: cell-based; conditions: cellular EGFR autophosphorylation, H1975, 2 h treatment; read-out: DM (H1975) IC50
T1 construct: endogenous in cells; host or cells: H1975 cells

IGF-1R = target: T2, IGF-1R (Homo sapiens, UniProt P08069); experiment: IGF-1R inhibition assay (Caliper mobility shift); type: biochemical; conditions: enzyme assay
T2 construct: purchased CARNA BIOSCIENCE 08-141
Method: Test compound was dissolved in DMSO at 30 mM. […] 20 nL of these compounds DMSO dilutes were dispensed into a new 384-well assay plate by Echo 550. […] 15 μL of kinase assay buffer containing IGF-1R protein and substrate was transferred to assay plate and incubate at RT for 30 minutes. Kinase assay buffer supplemented with substrate peptides was employed as low control to monitor the background. 40 μM ATP was prepared in kinase assay buffer containing and 5 μL of ATP solution was added to each well to start the reaction. The assay plate was incubated at 25° C. for 180 minutes and the reaction was stopped by adding 40 μL of 0.5 M EDTA.
Phosphorylated fluorescent-tagged peptides were differentiated from non-phosphorylated peptides by separating using Caliper EZ Reader II and the detection was directly converted to conversion ratio.

INSR = target: T3, INSR (Homo sapiens, UniProt P06213); experiment: INSR inhibition assay (Caliper mobility shift); type: biochemical; conditions: enzyme assay
T3 construct: purchased CARNA BIOSCIENCE 08-142
Method: Test compound was dissolved in DMSO at 30 mM. […] 20 nL of these compounds DMSO dilutes were dispensed into a new 384-well assay plate by Echo 550. […] 15 μL of kinase assay buffer containing INSR protein and substrate was transferred to assay plate and incubate at RT for 30 minutes. Kinase assay buffer supplemented with substrate peptides was employed as low control to monitor the background. 40 μM ATP was prepared in kinase assay buffer containing and 5 μL of ATP solution was added to each well to start the reaction. The assay plate was incubated at 25° C. for 180 minutes and the reaction was stopped by adding 40 μL of 0.5 M EDTA.
The result was analyzed in the same manner as IGF-IR.

[3] = test system: H1975 NSCLC cells xenograft (EGFR L858R/T790M double mutant); experiment: EGFR L858R/T790M double-mutant H1975 xenograft model; type: in vivo, nu/nu mice; conditions: day 10 after dosing; for Tumor Size: average ± SEM, n = 9
Method: Appropriately transformed cells, either from ATCC cell lines, known to carry the oncogene of interest, or from deliberate transfections, are suspended in appropriate media, and 5×10^6 or 1×10^7 cells are injected into the flank of nu/nu mice. Alternatively trochar placement of fragments of in vivo passaged tumors, usually about 1 mm^3 can be used to initiate the tumors. When tumors have reached an appropriate size for the experiment, usually in the 100-300 mg range, animals are randomized into matched groups of 6-10 mice, and tumor size and given vehicle or test article by perioral gavage once or twice daily. Tumor volumes are determined using calipers. The percentage increase in the volume of a xenograft tumor on day n versus day 0 (the day when dosing of the test compound began) is calculated as (tumor volume on day n−tumor volume on day 0/tumor volume on day 0)×100. The mean percentage of tumor growth inhibition in each drug-treated group relative to the vehicle-treated group is calculated as (1−mean percent increase of tumor volume in the drug-treated group/mean percent increase of the tumor volume in the vehicle-treated group)×100. Statistical significance is evaluated using a one-tailed t test.
Tumor size was measured on day 10 after dosing.

[4] = target: hERG channel (HEK 293 cell line stably expressing hERG channel) (Homo sapiens, UniProt Q12809); experiment: cell-based
[5] = target: Wild type EGFR in A431 cells (Homo sapiens, UniProt P00533); conditions: WT (A431) IC50 nM, cellular EGFR autophosphorylation, A431, 2 h treatment then EGF stimulation 10 min
[6] = target: T4, Exon 19 deletion EGFR (activating single mutant) in PC-9 cells (Homo sapiens, UniProt P00533, DEL746-750); experiment: Exon 19 deletion EGFR PC-9 cellular autophosphorylation assay (p-EGFR ELISA); type: cell-based; conditions: PC9, 2 h treatment, read-out: SM (PC9) IC50
T4 construct: cellular phosphorylation of endogenous p-EGFR; host or cells: PC9 (PC-9) human lung cell line
Method: The human lung cell line PC9 (Exon 19 deletion EGFR) were obtained from the American type Culture Collection. […] Cells were grown in a humidified incubator at 37° C. with 5% CO2, Assays to measure cellular phosphorylation of endogenous p-EGFR in cell Iysates were carried out according to the protocol described in the R&D Systems DuoSet IC Human Phospho-EGF R ELISA (R&D Systems catalogue number # DYCI095). 40 μL of cells were seeded (10000 cells/well) in growth medium in Coming black, clear-bottomed 384-well plates and incubated at 37° C. with 5% CO2 overnight. […] Plates were incubated for a further 2 h, then following aspiration of medium, 40 μL× lysis buffer is added to each well. Greiner black high bind 384 well plates were coated with capture antibody and then blocked with 3% BSA. Following removal of block, 15 μL of lysate are transferred to the Greiner black high bind 384 well plates and incubated for 2 hours. Following aspiration and washing of the plates with PBS, 20 μL of detection antibody were added and incubated for 2 hours. […] The data obtained with each compound are exported into a suitable software package (such as Origin) to perform curve fitting analysis.

PC-9 cells = experiment: PC-9 growth inhibition assay (cell proliferation, CellTiter-Glo, 72 h); type: cell-based, human; conditions: Homo sapiens, PC-9, 72 h, cellular proliferation, PC9 cells, single mutant EGFR, read-out: PC9 IC50 (nM) SM
Method: as §1, §2, §3, §4, §5

Mouse in vivo PK study [7] = conditions: male CD1 mice, 1 mg/kg IV
Method: To determine the drug concentration in plasma of the compounds of the present disclosure following intravenous and oral administration in male CD 1 Mice, pharmacokinetic profile and PK parameters were obtained.
Test animals: healthy male CD1 mice (body weight 20-30 g, 18 mice, free access to food and water), provided by Sibeifu laboratory. […]
Samples collection: the healthy animals were used, weighed the bodyweight and marked at tail and cage card prior to dosing. Blood samples (0.03 mL per time point) were collected from dorsal metatarsal vein at 0.083, 0.25, 0.5, 1, 2, 4, 8, 24 h post dose for IV group and at 0.25, 0.5, 1, 2, 4, 8, 24 h post dose for PO group, the terminal time point was collected from heart (˜0.3 mL). The blood samples were put into the tube with heparin-Na coated and then put on the cold box, centrifuged at 4° C. 4000 g, 5 minutes immediately after collecting all samples per time point to get plasma. The plasma samples were stored in a freezer at −75±15° C. prior to analysis.
The drug concentration was determined by LC/MS/MS method, and the PK parameters were observed as follows.

T4 sequence (P00533 with tags, fused parts or gaps DEL746-750): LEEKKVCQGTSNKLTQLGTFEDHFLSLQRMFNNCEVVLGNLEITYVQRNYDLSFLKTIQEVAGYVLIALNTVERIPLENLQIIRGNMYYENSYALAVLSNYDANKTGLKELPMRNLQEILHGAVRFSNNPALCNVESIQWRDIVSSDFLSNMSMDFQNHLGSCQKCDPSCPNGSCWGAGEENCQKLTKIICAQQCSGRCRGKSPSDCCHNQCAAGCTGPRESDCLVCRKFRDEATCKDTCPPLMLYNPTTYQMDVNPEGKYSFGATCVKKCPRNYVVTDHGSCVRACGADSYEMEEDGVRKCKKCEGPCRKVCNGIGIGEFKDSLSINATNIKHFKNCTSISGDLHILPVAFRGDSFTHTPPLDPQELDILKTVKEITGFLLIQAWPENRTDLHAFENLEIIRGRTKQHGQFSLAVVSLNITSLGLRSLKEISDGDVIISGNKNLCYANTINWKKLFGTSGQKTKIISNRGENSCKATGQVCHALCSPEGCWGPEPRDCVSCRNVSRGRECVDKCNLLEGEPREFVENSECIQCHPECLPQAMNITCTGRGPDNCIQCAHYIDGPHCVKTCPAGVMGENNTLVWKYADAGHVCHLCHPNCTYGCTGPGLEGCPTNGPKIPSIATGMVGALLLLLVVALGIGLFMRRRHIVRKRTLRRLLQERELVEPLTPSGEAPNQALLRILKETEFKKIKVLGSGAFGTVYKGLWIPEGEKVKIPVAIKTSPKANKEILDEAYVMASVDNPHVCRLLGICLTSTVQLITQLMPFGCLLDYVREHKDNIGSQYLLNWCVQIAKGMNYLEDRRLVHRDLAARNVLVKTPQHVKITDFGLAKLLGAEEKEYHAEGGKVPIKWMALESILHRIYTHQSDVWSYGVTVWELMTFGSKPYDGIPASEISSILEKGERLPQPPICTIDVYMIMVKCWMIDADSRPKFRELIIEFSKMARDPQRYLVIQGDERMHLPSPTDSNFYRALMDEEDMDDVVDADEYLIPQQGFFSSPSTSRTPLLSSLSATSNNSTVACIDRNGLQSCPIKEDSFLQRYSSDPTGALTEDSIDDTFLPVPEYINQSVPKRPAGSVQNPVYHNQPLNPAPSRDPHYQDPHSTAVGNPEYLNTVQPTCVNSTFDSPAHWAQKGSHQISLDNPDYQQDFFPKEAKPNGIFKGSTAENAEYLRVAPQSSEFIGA
T2 sequence (P08069 959-1367 limits assumed): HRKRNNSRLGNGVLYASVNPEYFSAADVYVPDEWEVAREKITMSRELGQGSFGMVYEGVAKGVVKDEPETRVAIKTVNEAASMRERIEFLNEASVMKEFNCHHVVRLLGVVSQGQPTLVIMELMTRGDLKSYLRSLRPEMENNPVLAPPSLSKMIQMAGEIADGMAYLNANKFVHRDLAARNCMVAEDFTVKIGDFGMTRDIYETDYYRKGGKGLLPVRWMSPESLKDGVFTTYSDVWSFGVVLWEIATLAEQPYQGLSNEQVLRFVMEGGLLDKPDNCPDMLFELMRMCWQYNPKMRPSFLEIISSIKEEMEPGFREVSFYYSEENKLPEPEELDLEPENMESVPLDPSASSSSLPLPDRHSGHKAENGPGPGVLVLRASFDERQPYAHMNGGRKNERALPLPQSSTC
T3 sequence (P06213 1005-1382 limits assumed): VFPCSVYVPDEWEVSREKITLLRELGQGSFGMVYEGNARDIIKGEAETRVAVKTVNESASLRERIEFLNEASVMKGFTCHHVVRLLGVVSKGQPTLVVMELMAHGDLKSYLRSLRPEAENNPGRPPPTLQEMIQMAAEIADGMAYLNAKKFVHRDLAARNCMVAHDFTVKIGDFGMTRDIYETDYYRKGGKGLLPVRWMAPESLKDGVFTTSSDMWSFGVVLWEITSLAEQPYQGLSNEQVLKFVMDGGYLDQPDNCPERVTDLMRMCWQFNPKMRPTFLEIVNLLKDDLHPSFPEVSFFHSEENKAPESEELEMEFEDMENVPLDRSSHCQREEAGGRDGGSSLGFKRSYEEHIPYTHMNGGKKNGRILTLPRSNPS
Sequence of Wild type EGFR in A431 cells (P00533 25-1210): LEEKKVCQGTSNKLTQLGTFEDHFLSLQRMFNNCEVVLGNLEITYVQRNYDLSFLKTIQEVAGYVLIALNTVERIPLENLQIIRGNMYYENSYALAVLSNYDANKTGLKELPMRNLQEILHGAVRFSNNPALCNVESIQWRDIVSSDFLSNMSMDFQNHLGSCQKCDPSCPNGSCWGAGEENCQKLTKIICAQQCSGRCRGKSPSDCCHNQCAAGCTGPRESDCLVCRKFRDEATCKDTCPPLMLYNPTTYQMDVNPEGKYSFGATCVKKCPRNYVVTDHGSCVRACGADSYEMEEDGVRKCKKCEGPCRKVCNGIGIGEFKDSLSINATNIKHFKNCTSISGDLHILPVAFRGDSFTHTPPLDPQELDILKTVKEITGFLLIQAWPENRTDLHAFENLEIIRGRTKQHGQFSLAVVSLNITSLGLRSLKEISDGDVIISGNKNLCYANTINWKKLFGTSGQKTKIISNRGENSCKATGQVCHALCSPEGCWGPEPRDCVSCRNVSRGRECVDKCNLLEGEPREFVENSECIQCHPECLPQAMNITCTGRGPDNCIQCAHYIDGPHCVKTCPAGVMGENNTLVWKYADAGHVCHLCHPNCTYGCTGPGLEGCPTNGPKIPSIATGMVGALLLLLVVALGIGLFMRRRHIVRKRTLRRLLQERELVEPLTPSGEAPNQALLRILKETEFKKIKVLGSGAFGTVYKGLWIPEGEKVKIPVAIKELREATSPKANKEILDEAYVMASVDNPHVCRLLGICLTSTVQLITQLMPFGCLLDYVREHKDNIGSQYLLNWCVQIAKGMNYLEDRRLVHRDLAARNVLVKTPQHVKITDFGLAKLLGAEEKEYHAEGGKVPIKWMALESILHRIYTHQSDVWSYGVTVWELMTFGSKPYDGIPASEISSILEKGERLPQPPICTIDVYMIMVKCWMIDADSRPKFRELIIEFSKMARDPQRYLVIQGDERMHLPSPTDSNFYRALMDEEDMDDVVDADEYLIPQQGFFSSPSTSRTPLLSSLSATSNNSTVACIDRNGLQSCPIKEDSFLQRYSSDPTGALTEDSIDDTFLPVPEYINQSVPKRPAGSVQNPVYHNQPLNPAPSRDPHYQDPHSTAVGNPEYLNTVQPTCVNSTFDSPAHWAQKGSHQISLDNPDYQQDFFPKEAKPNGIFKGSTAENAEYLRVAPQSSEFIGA
T1 sequence (P00533 25-1210 T790M/L858R): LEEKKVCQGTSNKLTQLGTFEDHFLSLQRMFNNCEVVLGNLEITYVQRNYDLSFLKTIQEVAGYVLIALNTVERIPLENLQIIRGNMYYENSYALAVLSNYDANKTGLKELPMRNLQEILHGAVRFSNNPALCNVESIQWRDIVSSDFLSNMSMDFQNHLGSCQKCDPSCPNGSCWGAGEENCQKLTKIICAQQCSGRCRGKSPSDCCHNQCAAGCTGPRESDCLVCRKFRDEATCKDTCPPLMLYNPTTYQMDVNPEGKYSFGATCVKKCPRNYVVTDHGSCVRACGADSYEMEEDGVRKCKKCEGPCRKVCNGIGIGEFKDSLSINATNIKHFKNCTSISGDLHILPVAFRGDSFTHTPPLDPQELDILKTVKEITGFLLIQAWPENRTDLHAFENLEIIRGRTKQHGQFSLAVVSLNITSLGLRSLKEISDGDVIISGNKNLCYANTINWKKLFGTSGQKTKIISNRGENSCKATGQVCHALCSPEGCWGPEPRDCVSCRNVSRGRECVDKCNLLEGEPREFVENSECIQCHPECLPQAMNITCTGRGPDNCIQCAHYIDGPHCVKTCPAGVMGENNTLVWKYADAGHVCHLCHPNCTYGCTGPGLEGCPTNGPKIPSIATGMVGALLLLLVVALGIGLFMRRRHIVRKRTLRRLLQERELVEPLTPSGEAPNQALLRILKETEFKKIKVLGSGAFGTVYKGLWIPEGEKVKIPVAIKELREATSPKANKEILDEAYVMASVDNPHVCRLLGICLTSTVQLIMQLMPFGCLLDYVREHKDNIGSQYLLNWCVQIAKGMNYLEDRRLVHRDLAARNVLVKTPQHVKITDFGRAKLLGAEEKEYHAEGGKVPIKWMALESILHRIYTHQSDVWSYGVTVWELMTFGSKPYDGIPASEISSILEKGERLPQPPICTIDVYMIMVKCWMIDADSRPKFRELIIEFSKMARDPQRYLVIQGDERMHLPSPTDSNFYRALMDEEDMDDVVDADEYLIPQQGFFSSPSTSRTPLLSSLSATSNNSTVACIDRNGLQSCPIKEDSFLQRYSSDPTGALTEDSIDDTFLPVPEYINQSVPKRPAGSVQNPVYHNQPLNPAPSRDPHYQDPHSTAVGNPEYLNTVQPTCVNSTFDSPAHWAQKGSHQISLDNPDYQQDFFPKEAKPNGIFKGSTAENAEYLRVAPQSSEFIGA

**Q.** Which results are given for C=CC(=O)Nc1cc(Nc2nccc(-n3nc(N(C)C)c4cc(Cl)sc43)n2)c(OC)cc1N(C)CCN(C)C [Example 6, N-(5-((4-(5-Chloro-3-(dimethylamino)-1H-thieno[2,3-c]pyrazol-1-yl)pyrimidin-2-yl)amino)-2-((2-(dimethylamino)ethyl)(methyl)amino)-4-methoxyphenyl)acrylamide]?
**A.** IC50 (A431 cells): 1090 nM; AUC (Mouse in vivo PK study [1]): 0.784 µg·h/mL; Cmax (Mouse in vivo PK study [1]): 0.117 µg/mL; half-life (Mouse in vivo PK study [1]; read-out: T1/2 (PO) (converted)): 2.67 h; IC50 (H1975 cells): 2.6 nM; IC50 [2]: 0.00752 µM; IC50 (IGF-1R): 2090 nM; IC50 (INSR): 2310 nM; TGI (tumor growth inhibition) ([3]; 5 mg/kg): 99.56%; TRTV/CRTV (relative tumor volume) ([3]; 5 mg/kg): 17.49%; Tumor Size ([3]; 5 mg/kg): 203 ± 24 mm^3; TGI (tumor growth inhibition) ([3]; 15 mg/kg): 114.04%; TRTV/CRTV (relative tumor volume) ([3]; 15 mg/kg): 5.34%; Tumor Size ([3]; 15 mg/kg): 63 ± 30 mm^3; TGI (tumor growth inhibition) ([3]; 30 mg/kg): 117.41%; TRTV/CRTV (relative tumor volume) ([3]; 30 mg/kg): 2.42%; Tumor Size ([3]; 30 mg/kg): 28 ± 9 mm^3; IC50 [4]: 2.55 µM; IC50 [5]: 72.5 nM; IC50 [6]: 0.00835 µM; IC50 (PC-9 cells): 1.82 nM; F (Mouse in vivo PK study [7]; 10 mg/kg PO): 46.7%; AUC (Mouse in vivo PK study [7]; mouse, plasma): 0.168 µg·h/mL; clearance (Mouse in vivo PK study [7]; mouse, plasma): 6 L/h/kg; half-life (Mouse in vivo PK study [7]; mouse, plasma, read-out: T1/2 (IV) (converted)): 0.92 h
